According to ChEMBL document CHEMBL6092222 (J Med Chem, 2024):
≈ marks a conversion by molar mass, not a printed value. Values belong to the compound of their own block, whether it stands above or below them.

Experiments:
[1] = Solubility of compound at pH 5 by reversed-phase UPLC analysis; type: physicochemical; conditions: buffer
[2] = Tmax in Sprague-Dawley rat at 10 mg/kg, po measured for 24 hrs by UPLC-MS/MS analysis; type: ADME, organism-based; conditions: in vivo
[3] = Oral bioavailability in mouse at 50 mg/kg administered as suspension; type: ADME, organism-based; conditions: in vivo
[4] = Dissociation constant, pKa of compound; type: physicochemical
[5] = AUC (total) in Famotidine-pretreated Sprague-Dawley rat at 10 mg/kg, po measured for 24 hrs by UPLC-MS/MS analysis; type: ADME, organism-based; conditions: in vivo
[6] = Solubility of compound at pH 7.4 by reversed-phase UPLC analysis; type: physicochemical; conditions: buffer
[7] = Inhibition of STAT5 phosphorylation in IFN-gamma-treated human whole blood; type: tissue-based
[8] = Oral bioavailability in rat; type: ADME, organism-based; conditions: in vivo
[9] = Cmax in Sprague-Dawley rat at 10 mg/kg, po measured for 24 hrs by UPLC-MS/MS analysis; type: ADME, organism-based; conditions: in vivo
[10] = Cmax in Pentagastrine-pretreated Sprague-Dawley rat at 10 mg/kg, po measured for 24 hrs by UPLC-MS/MS analysis; type: ADME, organism-based; conditions: in vivo
[11] = Efflux ratio of apparent permeability across basal to apical side over apical to basal side in human Caco-2 cells; type: ADME, cell-based
[12] = Protein binding in monkey plasma assessed as free fraction; type: ADME, cell-free, Macaca mulatta; conditions: rhesus monkey
[13] = Solubility of compound at pH 3 by reversed-phase UPLC analysis; type: physicochemical; conditions: buffer
[14] = Solubility of compound in FaSSIF at pH 6.5 by reversed-phase UPLC analysis; type: physicochemical
[15] = Oral bioavailability in Pentagastrine-pretreated Sprague-Dawley rat at 10 mg/kg measured for 24 hrs by UPLC-MS/MS analysis; type: ADME, organism-based; conditions: in vivo
[16] = Oral bioavailability in mouse; type: ADME, organism-based; conditions: in vivo
[17] = Solubility of compound at pH 6.5 by reversed-phase UPLC analysis; type: physicochemical; conditions: buffer
physchem [18] = conditions: aqueous buffer, pH 1
Description: Solubility of compound in aqueous buffer at pH 1 at 25 degreeC by reversed phase-HPLC analysis

[19] = Apparent permeability across apical to basal side in human Caco-2 cells; type: ADME, cell-based
[20] = Cmax in Famotidine-pretreated Sprague-Dawley rat at 10 mg/kg, po measured for 24 hrs by UPLC-MS/MS analysis; type: ADME, organism-based; conditions: in vivo
[21] = Oral bioavailability in Sprague-Dawley rat at 10 mg/kg measured for 24 hrs by UPLC-MS/MS analysis; type: ADME, organism-based; conditions: in vivo
[22] = Permeability of compound by PAMPA; type: ADME; conditions: read-out: permeability
[23] = Solubility of compound at pH 4 by reversed-phase UPLC analysis; type: physicochemical; conditions: buffer
[24] = Protein binding in rat plasma assessed as free fraction; type: ADME, cell-free
[25] = Protein binding in human plasma assessed as free fraction; type: ADME, cell-free
[26] = AUC (total) in Sprague-Dawley rat at 10 mg/kg, po measured for 24 hrs by UPLC-MS/MS analysis; type: ADME, organism-based; conditions: in vivo
physchem [27] = conditions: aqueous buffer, pH 6.5
Description: Solubility of compound in aqueous buffer at pH 6.5 at 25 degreeC by reversed phase-HPLC analysis

[28] = Solubility of compound at pH 1 by reversed-phase UPLC analysis; type: physicochemical; conditions: buffer
[29] = Tmax in Famotidine-pretreated Sprague-Dawley rat at 10 mg/kg, po measured for 24 hrs by UPLC-MS/MS analysis; type: ADME, organism-based; conditions: in vivo
physchem [30] = conditions: aqueous buffer, pH 4
Description: Solubility of compound in aqueous buffer at pH 4 at 25 degreeC by reversed phase-HPLC analysis

[31] = Solubility of compound at pH 2 by reversed-phase UPLC analysis; type: physicochemical; conditions: buffer
[32] = Oral bioavailability in Famotidine-pretreated Sprague-Dawley rat at 10 mg/kg measured for 24 hrs by UPLC-MS/MS analysis; type: ADME, organism-based; conditions: in vivo
[33] = Solubility of compound in FeSSIF at pH 5 by reversed-phase UPLC analysis; type: physicochemical
[34] = Oral bioavailability in monkey; type: ADME, organism-based, Macaca mulatta; conditions: rhesus monkey, in vivo
[35] = Tmax in Pentagastrine-pretreated Sprague-Dawley rat at 10 mg/kg, po measured for 24 hrs by UPLC-MS/MS analysis; type: ADME, organism-based; conditions: in vivo
[36] = Lipophilicity, logP of compound by HPLC analysis; type: physicochemical
[37] = AUC (total) in Pentagastrine-pretreated Sprague-Dawley rat at 10 mg/kg, po measured for 24 hrs by UPLC-MS/MS analysis; type: ADME, organism-based; conditions: in vivo
[38] = Chemical stability of compound in phosphate buffer at pH 6.5 at 37 degreeC assessed as half life measured for 24 hrs by reversed phase-HPLC analysis; type: physicochemical
[39] = Chemical stability of compound in acetate buffer at pH 4 at 37 degreeC assessed as half life measured for 24 hrs by reversed phase-HPLC analysis; type: physicochemical
[40] = Chemical stability of compound in 0.1 M HCl at pH 1 at 37 degreeC assessed as half life measured for 24 hrs by reversed phase-HPLC analysis; type: physicochemical
[41] = Prodrug conversion in Famotidine-pretreated Sprague-Dawley rat assessed as Cmax of 6-(cyclopropanecarboxamido)-4-((2-methoxy-3-(2-methyl-2H-tetrazol-5-yl)phenyl)amino)-N-(methyl-d3)nicotinamide metabolite at 10 mg/kg, po measured for 24 hrs by UPLC-MS/MS analysis; type: ADME, organism-based; conditions: in vivo
[42] = Prodrug conversion in Pentagastrine-pretreated Sprague-Dawley rat assessed as Cmax of 6-(cyclopropanecarboxamido)-4-((2-methoxy-3-(2-methyl-2H-tetrazol-5-yl)phenyl)amino)-N-(methyl-d3)nicotinamide metabolite at 10 mg/kg, po measured for 24 hrs by UPLC-MS/MS analysis; type: ADME, organism-based; conditions: in vivo
[43] = Prodrug conversion in Famotidine-pretreated Sprague-Dawley rat assessed as AUC (total) of 6-(cyclopropanecarboxamido)-4-((2-methoxy-3-(2-methyl-2H-tetrazol-5-yl)phenyl)amino)-N-(methyl-d3)nicotinamide metabolite at 10 mg/kg, po measured for 24 hrs by UPLC-MS/MS analysis; type: ADME, organism-based; conditions: in vivo
[44] = Prodrug conversion in Pentagastrine-pretreated Sprague-Dawley rat assessed as AUC (total) of 6-(cyclopropanecarboxamido)-4-((2-methoxy-3-(2-methyl-2H-tetrazol-5-yl)phenyl)amino)-N-(methyl-d3)nicotinamide metabolite at 10 mg/kg, po measured for 24 hrs by UPLC-MS/MS analysis; type: ADME, organism-based; conditions: in vivo
[45] = Prodrug conversion in Pentagastrine-pretreated Sprague-Dawley rat assessed as Tmax of 6-(cyclopropanecarboxamido)-4-((2-methoxy-3-(2-methyl-2H-tetrazol-5-yl)phenyl)amino)-N-(methyl-d3)nicotinamide metabolite at 10 mg/kg, po measured for 24 hrs by UPLC-MS/MS analysis; type: ADME, organism-based; conditions: in vivo
[46] = Prodrug conversion in Famotidine-pretreated Sprague-Dawley rat assessed as Tmax of 6-(cyclopropanecarboxamido)-4-((2-methoxy-3-(2-methyl-2H-tetrazol-5-yl)phenyl)amino)-N-(methyl-d3)nicotinamide metabolite at 10 mg/kg, po measured for 24 hrs by UPLC-MS/MS analysis; type: ADME, organism-based; conditions: in vivo

solubility [1]: < 1 µg/mL
Tmax [2]: 1.1 h
bioavailability [3]: 63%
pKa [4]: 4.8
AUC at 24 h [5]: 7.8 µM·h
solubility [6]: < 1 µg/mL
IC50 [7]: 23 nM
bioavailability [8]: 50%
Cmax [9]: 4.8 µM
Cmax [10]: 8.6 µM
efflux ratio [11]: 8.2
fraction unbound [12]: 0.08
solubility [13]: 17 µg/mL (≈ 40 µM)
solubility [14]: 8 µg/mL (≈ 18.8 µM)
bioavailability [15]: 91%
bioavailability [16]: 100%
solubility [17]: < 1 µg/mL
solubility (physchem [18]): 2020 µg/mL (≈ 4750 µM)
Papp A→B [19]: 6.7 ×10⁻⁶ cm/s
Cmax [20]: 0.77 µM
bioavailability [21]: 36%
Papp [22]: ~60 ×10⁻⁶ cm/s
solubility [23]: 5 µg/mL (≈ 11.8 µM)
fraction unbound [24]: 0.07
fraction unbound [25]: 0.1
AUC at 24 h [26]: 18.4 µM·h
solubility (physchem [27]): 1 µg/mL (≈ 2.35 µM)
solubility [28]: 2020 µg/mL (≈ 4750 µM)
Tmax [29]: 2.5 h
solubility (physchem [30]): 5 µg/mL (≈ 11.8 µM)
solubility [31]: 1680 µg/mL (≈ 3950 µM)
bioavailability [32]: 15.4%
solubility [33]: 57 µg/mL (≈ 134 µM)
bioavailability [34]: 100%
Tmax [35]: 0.9 h
logP [36]: 2.7
AUC at 24 h [37]: 46 µM·h
Compound: [2H]C([2H])([2H])NC(=O)c1cnc(NC(=O)C2CC2)cc1Nc1cccc(-c2nnn(C)n2)c1OC

Compound: [2H]C([2H])([2H])NC(=O)c1cn(COC(=O)c2ccc(OP(=O)(O)O)c(OC)c2)/c(=N/C(=O)C2CC2)cc1Nc1cccc(-c2nnn(C)n2)c1OC
solubility (physchem [18]): < 1 µg/mL
half-life [38]: 84 h
half-life [39]: 215 h
solubility (physchem [27]): 1000 µg/mL (≈ 1460 µM)
half-life [40]: > 500 h
solubility (physchem [30]): 58 µg/mL (≈ 84.6 µM)

Cmax [41]: 8.1 µM
Cmax [42]: 11.6 µM
AUC [43]: 58 µM·h
AUC [44]: 79 µM·h
solubility (physchem [18]): 10 µg/mL
Tmax [45]: 2.1 h
half-life [38]: 177 h
half-life [39]: 376 h
solubility (physchem [27]): 1470 µg/mL
Tmax [46]: 2.5 h
half-life [40]: > 500 h
solubility (physchem [30]): 1 µg/mL
Compound: [2H]C([2H])([2H])NC(=O)c1cn(COP(=O)([O-])[O-])/c(=N/C(=O)C2CC2)cc1Nc1cccc(-c2nnn(C)n2)c1OC.[Na+].[Na+]

solubility (physchem [18]): 1 µg/mL
solubility (physchem [27]): 141 µg/mL
solubility (physchem [30]): 2 µg/mL
Compound: NC(CO)(CO)CO.[2H]C([2H])([2H])NC(=O)c1cn(COP(=O)(O)O)/c(=N/C(=O)C2CC2)cc1Nc1cccc(-c2nnn(C)n2)c1OC

AUC at 24 h [5]: 5.5 µM·h
Cmax [10]: 7.1 µM
Cmax [20]: 0.8 µM
Tmax [29]: 4 h
Tmax [35]: 5.5 h
AUC at 24 h [37]: 53.4 µM·h
Compound: Cl.[2H]C([2H])([2H])NC(=O)c1cnc(NC(=O)C2CC2)cc1Nc1cccc(-c2nnn(C)n2)c1OC

solubility (physchem [18]): 1 µg/mL (≈ 1.49 µM)
half-life [38]: 130 h
half-life [39]: 334 h
solubility (physchem [27]): 1 µg/mL (≈ 1.49 µM)
half-life [40]: 334 h
Compound: [2H]C([2H])([2H])NC(=O)c1cn(COC(=O)c2ccc(COP(=O)(O)O)cc2)/c(=N/C(=O)C2CC2)cc1Nc1cccc(-c2nnn(C)n2)c1OC

half-life [38]: 71.8 h
half-life [39]: 0.7 h
solubility (physchem [27]): 2500 µg/mL
Compound: [2H]C([2H])([2H])N(COP(=O)([O-])[O-])C(=O)c1cnc(NC(=O)C2CC2)cc1Nc1cccc(-c2nnn(C)n2)c1OC.[Na+].[Na+]

solubility (physchem [18]): 4 µg/mL
solubility (physchem [27]): 308 µg/mL
solubility (physchem [30]): 9 µg/mL
Compound: NCCCC[C@H](N)C(=O)O.[2H]C([2H])([2H])NC(=O)c1cn(COP(=O)(O)O)/c(=N/C(=O)C2CC2)cc1Nc1cccc(-c2nnn(C)n2)c1OC

solubility (physchem [18]): 650 µg/mL
half-life [38]: 5.7 h
half-life [39]: 72 h
half-life [40]: 334 h
solubility (physchem [30]): 580 µg/mL
Compound: CNCC(=O)OCc1cccnc1N(C)C(=O)OCn1cc(C(=O)NC)c(Nc2cccc(-c3nnn(C)n3)c2OC)c/c1=N\C(=O)C1CC1.Cl

Compound: [2H]C([2H])([2H])NC(=O)c1cn(COC(=O)CC(C)(C)c2c(C)cc(C)cc2OP(=O)(O)O)/c(=N/C(=O)C2CC2)cc1Nc1cccc(-c2nnn(C)n2)c1OC
solubility (physchem [18]): 22 µg/mL (≈ 29.7 µM)
half-life [38]: 7.7 h
half-life [39]: 274 h
half-life [40]: 64 h
solubility (physchem [30]): 44 µg/mL (≈ 59.5 µM)
